The values below come from patent US20250049970A1, “DLL3 TARGETING PEPTIDES AND CONSTRUCTS THEREOF” (MARIANA ONCOLOGY INC., priority 2023, published 2025).

This assay addresses T1, DLL3 (Homo sapiens, UniProt Q9NYJ7).
T1 sequence (Q9NYJ7 27-618): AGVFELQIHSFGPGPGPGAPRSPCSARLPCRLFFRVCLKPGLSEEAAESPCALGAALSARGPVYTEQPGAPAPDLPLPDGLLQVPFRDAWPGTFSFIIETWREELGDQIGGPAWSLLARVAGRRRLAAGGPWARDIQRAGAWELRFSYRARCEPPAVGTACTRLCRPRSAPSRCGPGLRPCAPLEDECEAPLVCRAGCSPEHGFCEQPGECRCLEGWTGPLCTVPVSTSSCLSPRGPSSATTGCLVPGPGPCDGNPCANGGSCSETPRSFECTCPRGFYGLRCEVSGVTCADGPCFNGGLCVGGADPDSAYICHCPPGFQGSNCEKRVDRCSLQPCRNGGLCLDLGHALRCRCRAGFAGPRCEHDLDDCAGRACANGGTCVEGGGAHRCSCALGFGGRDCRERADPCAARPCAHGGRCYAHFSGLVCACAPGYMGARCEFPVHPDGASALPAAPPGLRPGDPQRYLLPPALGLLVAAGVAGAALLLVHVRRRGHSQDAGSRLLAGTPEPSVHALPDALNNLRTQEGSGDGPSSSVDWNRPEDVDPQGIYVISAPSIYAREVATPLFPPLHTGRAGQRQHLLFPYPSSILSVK
In words: SPR KD, biotinylated human DLL3 on streptavidin chip (Table 8). Conditions: biotinylated human DLL3 on streptavidin sensor chip, 25° C., 1:1 binding model; read-out: SPR KD. Details: biotin (biotinylated). From the text: Biotinylated target ligand human DLL3 was immobilized on a streptavidin sensor chip. A reference surface was set up for nonspecific binding and refractive index changes. […] Sensorgram curves were fitted with 1:1 binding model, and affinity and kinetic parameters were obtained using Biacore Insight evaluation 4.0. software.

Structures are written as SMILES. *1 amine or outer side, *2 acyl side, *3 side chain or, on linkers, in order; H or OH if unused. Where a SMILES comes first, the peptide text is derived from it. Bridges are numbered along the chain shown (N, C = ends). [ ]: non-standard residue; d: D form. The star is where a group is joined. ξ: configuration not given here. Ala(piperidin-4-yl) = O=C([C@H](CC1CCN([*:3])CC1)N[*:1])[*:2]; DOTA = O=C(O)CN1CCN(CC(=O)O)CCN(CC(=O)*)CCN(CC(=O)O)CC1; Phe(4-CF3) = N[C@@H](Cc1ccc(C(F)(F)F)cc1)C(=O)O; Bip = N[C@@H](Cc1ccc(-c2ccccc2)cc1)C(=O)O; Phe(4-F) = N[C@@H](Cc1ccc(F)cc1)C(=O)O; 2Nal = N[C@@H](Cc1ccc2ccccc2c1)C(=O)O; NMetBuAla = CN[C@@H](CC(C)(C)C)C(=O)O; tBuAla = CC(C)(C)C[C@H](N)C(=O)O; ξIle = CC[C@H](C)C(N)C(=O)O; Dab = NCC[C@H](N)C(=O)O; Dap = NC[C@H](N)C(=O)O; CH2 = C([*:1])[*:2]

As a reminder, the Kd is the concentration at which binding is half-saturated. On to `CC[C@H](C)[C@H](NC(=O)[C@@H](NC(=O)[C@H](Cc1c[nH]c2ccccc12)NC(C)=O)[C@@H](C)O)C(=O)N[C@H]1CSSC[C@@H](C(=O)N[C@@H](Cc2ccc(F)cc2)C(=O)N2CCC[C@H]2C(N)=O)NC(=O)[C@H](CC(=O)O)NC(=O)[C@H](Cc2c[nH]cn2)NC(=O)[C@H](Cc2c[nH]c3ccccc23)NC(=O)[C@H](CC(N)=O)NC(=O)[C@H](CC(N)=O)NC1=O` [compound 52, Ac-W-T-I-C(3)-N-N-W-H-D-C(3)-(4Fluoro-F)-P-CONH2] (Ac-WTICNNWHDC[Phe(4-F)]P-NH2; disulfide 4-10), for which the Kd lay within 10 to 100 nM. For `CC[C@H](C)[C@H](NC(=O)[C@@H](NC(=O)[C@H](Cc1c[nH]c2ccccc12)NC(C)=O)[C@@H](C)O)C(=O)N[C@H]1CSSC[C@@H](C(=O)N[C@@H](Cc2c[nH]c3ccccc23)C(=O)N2CCC[C@H]2C(N)=O)NC(=O)[C@H](CC(=O)O)NC(=O)[C@H](Cc2cnc[nH]2)NC(=O)[C@H](Cc2ccc(-c3ccccc3)cc2)NC(=O)[C@H](CC(N)=O)NC(=O)[C@H](CC(N)=O)NC1=O` [compound 53, Ac-W-T-I-C(3)-N-N-(BIP)-H-D-C(3)-W-P-CONH2] (Ac-WTICNN[Bip]HDCWP-NH2; disulfide 4-10) the value was 10 to 100 nM; for `CC[C@H](C)[C@H](NC(=O)[C@@H](NC(=O)[C@H](Cc1c[nH]c2ccccc12)NC(C)=O)[C@@H](C)O)C(=O)N[C@H]1CCC(=O)NCC[C@@H](C(=O)N[C@@H](Cc2c[nH]c3ccccc23)C(=O)N2CCC[C@H]2C(N)=O)NC(=O)[C@H](CC(=O)O)NC(=O)[C@H](Cc2c[nH]cn2)NC(=O)[C@H](Cc2c[nH]c3ccccc23)NC(=O)[C@H](CC(N)=O)NC(=O)[C@H](CC(N)=O)NC1=O` [compound 71] (Ac-WTIENNWHD[Dab]WP-NH2; lactam 4-10), 100 to 300 nM; for `CC[C@H](C)[C@H](NC(=O)[C@@H](NC(=O)[C@H](Cc1c[nH]c2ccccc12)NC(=O)[C@H](CCSC)NC(C)=O)[C@@H](C)O)C(=O)N[C@H]1CSSC[C@@H](C(=O)N[C@@H](Cc2c[nH]c3ccccc23)C(=O)N2CCC[C@H]2C(N)=O)NC(=O)[C@H](CC(=O)O)NC(=O)[C@@H](C)NC(=O)[C@H](Cc2c[nH]c3ccccc23)NC(=O)[C@H](CC(N)=O)NC(=O)[C@H](CC(N)=O)NC1=O` [compound 72] (Ac-MWTICNNW[dA]DCWP-NH2; disulfide 5-11), 100 to 300 nM. In the case of `CC(=O)N[C@@H](Cc1c[nH]c2ccccc12)C(=O)N[C@H](C(=O)N[C@@H](CC(C)(C)C)C(=O)N[C@H]1CSCSC[C@@H](C(=O)N[C@@H](Cc2c[nH]c3ccccc23)C(=O)N2CCC[C@H]2C(N)=O)NC(=O)[C@H](CC(=O)O)NC(=O)[C@H](CCCCNC(=O)CN2CCN(CC(=O)O)CCN(CC(=O)O)CCN(CC(=O)O)CC2)NC(=O)[C@H](Cc2ccc3ccccc3c2)NC(=O)[C@H](CC(N)=O)NC(=O)[C@H](CC2CCNCC2)NC1=O)[C@@H](C)O` [compound 94] (Ac-WT[tBuAla]C[Ala(piperidin-4-yl)]N[2Nal]K(DOTA)DCWP-NH2; linker 4-10 via CH2) it was below 1 nM. As for `CC[C@@H](C)[C@@H](NC(=O)[C@H](NC(=O)[C@@H](Cc1c[nH]c2ccccc12)NC(C)=O)[C@H](C)O)C(=O)N[C@H]1CC(=O)NCC[C@@H](C(=O)N[C@@H](Cc2c[nH]c3ccccc23)C(=O)N2CCC[C@H]2C(N)=O)NC(=O)[C@H](CC(=O)O)NC(=O)[C@H](Cc2c[nH]cn2)NC(=O)[C@H](Cc2c[nH]c3ccccc23)NC(=O)[C@H](CC(N)=O)NC(=O)[C@H](CC(N)=O)NC1=O` [compound 95, Ac-W-T-I-(L-Asp)*-N-N-W-H-D-(L-2,4-Dab)*-W-P-CONH2 (* denotes lactam between side chains between L-Asp and L-2,4-Dab)] (Ac-[dW][dT][dI]DNNWHD[Dab]WP-NH2; lactam 4-10), the Kd fell in the range of 100 to 300 nM. Take `CC[C@H](C)[C@H](NC(=O)[C@@H](NC(=O)[C@H](Cc1c[nH]c2ccccc12)NC(C)=O)[C@@H](C)O)C(=O)N[C@H]1CC(=O)NC[C@@H](C(=O)N[C@@H](Cc2c[nH]c3ccccc23)C(=O)N2CCC[C@H]2C(N)=O)NC(=O)[C@H](CC(=O)O)NC(=O)[C@H](Cc2c[nH]cn2)NC(=O)[C@H](Cc2c[nH]c3ccccc23)NC(=O)[C@H](CC(N)=O)NC(=O)[C@H](CC(N)=O)NC1=O` [compound 120, Ac-W-T-I-(L-Asp)*-N-N-W-H-D-(L-Dap)*-W-P-CONH2 (* denotes lactam between side chains between L-Asp and L-Dap)] (Ac-WTIDNNWHD[Dap]WP-NH2; lactam 4-10): the Kd was 100 to 300 nM. In the case of `CC(=O)N[C@@H](Cc1c[nH]c2ccccc12)C(=O)N[C@H](C(=O)N(C)[C@@H](CC(C)(C)C)C(=O)N[C@H]1CSCSC[C@@H](C(=O)N[C@@H](Cc2c[nH]c3ccccc23)C(=O)N2CCC[C@H]2C(N)=O)NC(=O)[C@H](CC(=O)O)NC(=O)[C@H](CCCCNC(=O)CN2CCN(CC(=O)O)CCN(CC(=O)O)CCN(CC(=O)O)CC2)NC(=O)[C@H](Cc2ccc3ccccc3c2)NC(=O)[C@H](CC(N)=O)NC(=O)[C@H](CC2CCNCC2)NC1=O)[C@@H](C)O` [compound 153] (Ac-WT[NMetBuAla]C[Ala(piperidin-4-yl)]N[2Nal]K(DOTA)DCWP-NH2; linker 4-10 via CH2), the Kd is below 1 nM. Consider `CC[C@H](C)[C@H](NC(=O)[C@@H](NC(=O)[C@H](Cc1ccc(F)cc1)NC(C)=O)[C@@H](C)O)C(=O)N[C@H]1CSSC[C@@H](C(=O)N[C@@H](Cc2c[nH]c3ccccc23)C(=O)N2CCC[C@H]2C(N)=O)NC(=O)[C@H](CC(=O)O)NC(=O)[C@H](Cc2cnc[nH]2)NC(=O)[C@H](Cc2c[nH]c3ccccc23)NC(=O)[C@H](CC(N)=O)NC(=O)[C@H](CC(N)=O)NC1=O` [compound 214, Ac-(4Fluoro-F)-T-I-C(3)-N-N-W-H-D-C(3)-W-P-CONH2] (Ac-[Phe(4-F)]TICNNWHDCWP-NH2; disulfide 4-10), for which the Kd lay within 100 to 300 nM. For `CC[C@H](C)[C@H](NC(=O)[C@@H](NC(=O)[C@H](Cc1ccc(C(F)(F)F)cc1)NC(C)=O)[C@@H](C)O)C(=O)N[C@H]1CSSC[C@@H](C(=O)N[C@@H](Cc2c[nH]c3ccccc23)C(=O)N2CCC[C@H]2C(N)=O)NC(=O)[C@H](CC(=O)O)NC(=O)[C@H](Cc2cnc[nH]2)NC(=O)[C@H](Cc2c[nH]c3ccccc23)NC(=O)[C@H](CC(N)=O)NC(=O)[C@H](CC(N)=O)NC1=O` [compound 215, Ac-(4CF3-F)-T-I-C(3)-N-N-W-H-D-C(3)-W-P-CONH2] (Ac-[Phe(4-CF3)]TICNNWHDCWP-NH2; disulfide 4-10) the value was 10 to 100 nM; for `CC[C@H](C)[C@H](NC(=O)[C@@H](NC(=O)[C@H](Cc1c[nH]c2ccccc12)NC(C)=O)[C@@H](C)O)C(=O)N[C@H]1CSSC[C@@H](C(=O)N[C@@H](Cc2c[nH]c3ccccc23)C(=O)N2CCC[C@H]2C(=O)N[C@H](CCCCNC(=O)CN2CCN(CC(=O)O)CCN(CC(=O)O)CCN(CC(=O)O)CC2)C(N)=O)NC(=O)[C@H](CC(=O)O)NC(=O)[C@H](Cc2cnc[nH]2)NC(=O)[C@H](Cc2ccc3ccccc3c2)NC(=O)[C@H](CC(N)=O)NC(=O)[C@H](CCCCNC(=O)CN2CCN(CC(=O)O)CCN(CC(=O)O)CCN(CC(=O)O)CC2)NC1=O` [compound 247] (Ac-WTICK(DOTA)N[2Nal]HDCWP[dK](DOTA)-NH2; disulfide 4-10), below 1 nM.

As to `CC[C@H](C)C(NC(=O)[C@@H](NC(=O)[C@H](Cc1c[nH]c2ccccc12)NC(C)=O)[C@@H](C)O)C(=O)N[C@H]1CSSC[C@@H](C(=O)N[C@@H](Cc2c[nH]c3ccccc23)C(=O)N2CCC[C@H]2C(=O)N[C@H](CCCCNC(=O)CN2CCN(CC(=O)O)CCN(CC(=O)O)CCN(CC(=O)O)CC2)C(N)=O)NC(=O)[C@H](CC(=O)O)NC(=O)[C@H](Cc2cnc[nH]2)NC(=O)[C@H](Cc2ccc3ccccc3c2)NC(=O)[C@H](CCCCNC(=O)CN2CCN(CC(=O)O)CCN(CC(=O)O)CCN(CC(=O)O)CC2)NC(=O)[C@H](CC(N)=O)NC1=O` (stereo partly drawn) [compound 248, Ac-W-T-I-C(3)-N-Lys(DOTA)-(2Nal)-H-D-C(3)-W-P-[D-Lys(DOTA)]-NH2] (Ac-WT[ξIle]CNK(DOTA)[2Nal]HDCWP[dK](DOTA)-NH2; disulfide 4-10), the Kd is below 1 nM. For `CC[C@H](C)[C@H](NC(=O)[C@@H](NC(=O)[C@H](Cc1c[nH]c2ccccc12)NC(C)=O)[C@@H](C)O)C(=O)N[C@H]1CSSC[C@@H](C(=O)N[C@@H](Cc2c[nH]c3ccccc23)C(=O)N2CCC[C@H]2C(N)=O)NC(=O)[C@H](CC(=O)O)NC(=O)[C@H](Cc2c[nH]cn2)NC(=O)[C@H](Cc2ccc3ccccc3c2)NC(=O)[C@H](CCCCNC(=O)CN2CCN(CC(=O)O)CCN(CC(=O)O)CCN(CC(=O)O)CC2)NC(=O)[C@H](CC(N)=O)NC1=O` [compound 250, Ac-W-T-I-C(3)-N-Lys(DOTA)-(2Nal)-H-D-C(3)-W-P-CONH2] (Ac-WTICNK(DOTA)[2Nal]HDCWP-NH2; disulfide 4-10) the value was 1 to 10 nM.
